Test system: A498 complex spheroids with HUVEC/MSC, growth
Assay: Anticancer human tumor A498 cell line growth inhibition [AhR];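 further: seven day exposure starting three days after spheroid seeding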;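 on viability, T/C: luminescence signal used as a surrogate for viable cells; luminescence viability scaled so 100% equals DMSO vehicle wells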
Conditions: for IC50: curve of first compound; for viability, T/C: stronger effect = lower value
In short: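 Spheroids combined tumor cells with HUVEC endothelial cells and human MSCs as stroma. AhR antagonists were paired with standard or investigational drugs, each dosed in half-log steps down from near clinical Cmax, or from 10 microM where Cmax was unknown.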

[1] = second compound 0.1 µM, first compound 0.00949 µM
[2] = second compound 0.1 µM, first compound 0.03 µM
[3] = second compound 0.1 µM, first compound 0.0949 µM
[4] = second compound 0.1 µM, first compound 0.3 µM
[5] = second compound 0.316 µM, first compound 0.00949 µM
[6] = second compound 0.316 µM, first compound 0.03 µM
[7] = second compound 0.316 µM, first compound 0.0949 µM
[8] = second compound 0.316 µM, first compound 0.3 µM
[9] = second compound 1 µM, first compound 0.00949 µM
[10] = second compound 1 µM, first compound 0.03 µM
[11] = second compound 1 µM, first compound 0.0949 µM
[12] = second compound 1 µM, first compound 0.3 µM
[13] = second compound 3.16 µM, first compound 0.00949 µM
[14] = second compound 3.16 µM, first compound 0.03 µM
[15] = second compound 3.16 µM, first compound 0.0949 µM
[16] = second compound 3.16 µM, first compound 0.3 µM
[17] = second compound 10 µM, first compound 0.00949 µM
[18] = second compound 10 µM, first compound 0.03 µM
[19] = second compound 10 µM, first compound 0.0949 µM
[20] = second compound 10 µM, first compound 0.3 µM

## CC1COCCN1c1cc(C2(S(C)(=N)=O)CC2)nc(-c2ccnc3[nH]ccc23)n1 (stereo not given) + CC(CO)NC(=O)c1cc(-c2ccc(Cl)cc2)nn(-c2cnn(C)c2)c1=O
Second compound 0.1 µM
  IC50: 1770 nM
Second compound 0.316 µM
  IC50: 1640 nM
Second compound 1 µM
  IC50: 1280 nM
Second compound 3.16 µM
  IC50: 1190 nM
Second compound 10 µM
  IC50: 784 nM
Second compound 0.1 µM, first compound 0.0316 µM
  viability, T/C: 96.6%
Second compound 0.1 µM, first compound 0.1 µM
  viability, T/C: 94.9%
Second compound 0.1 µM, first compound 0.316 µM
  viability, T/C: 85.2%
Second compound 0.1 µM, first compound 1 µM
  viability, T/C: 66%
Second compound 0.1 µM, first compound 3.16 µM
  viability, T/C: 34.2%
Second compound 0.1 µM, first compound 10 µM
  viability, T/C: 18.2%
Second compound 0.316 µM, first compound 0.0316 µM
  viability, T/C: 88.7%
Second compound 0.316 µM, first compound 0.1 µM
  viability, T/C: 89.6%
Second compound 0.316 µM, first compound 0.316 µM
  viability, T/C: 84%
Second compound 0.316 µM, first compound 1 µM
  viability, T/C: 65.1%
Second compound 0.316 µM, first compound 3.16 µM
  viability, T/C: 30.2%
Second compound 0.316 µM, first compound 10 µM
  viability, T/C: 19.7%
Second compound 1 µM, first compound 0.0316 µM
  viability, T/C: 84.3%
Second compound 1 µM, first compound 0.1 µM
  viability, T/C: 86.8%
Second compound 1 µM, first compound 0.316 µM
  viability, T/C: 87%
Second compound 1 µM, first compound 1 µM
  viability, T/C: 53.5%
Second compound 1 µM, first compound 3.16 µM
  viability, T/C: 30.6%
Second compound 1 µM, first compound 10 µM
  viability, T/C: 17.1%
Second compound 3.16 µM, first compound 0.0316 µM
  viability, T/C: 80.6%
Second compound 3.16 µM, first compound 0.1 µM
  viability, T/C: 81.8%
Second compound 3.16 µM, first compound 0.316 µM
  viability, T/C: 78.5%
Second compound 3.16 µM, first compound 1 µM
  viability, T/C: 52.1%
Second compound 3.16 µM, first compound 3.16 µM
  viability, T/C: 29.1%
Second compound 3.16 µM, first compound 10 µM
  viability, T/C: 16.5%
Second compound 10 µM, first compound 0.0316 µM
  viability, T/C: 70.1%
Second compound 10 µM, first compound 0.1 µM
  viability, T/C: 65.7%
Second compound 10 µM, first compound 0.316 µM
  viability, T/C: 62.8%
Second compound 10 µM, first compound 1 µM
  viability, T/C: 46.9%
Second compound 10 µM, first compound 3.16 µM
  viability, T/C: 25.8%
Second compound 10 µM, first compound 10 µM
  viability, T/C: 17.7%

## Nc1ncn(C2CC(O)C(CO)S2)c(=O)n1 (stereo not given) + CC(CO)NC(=O)c1cc(-c2ccc(Cl)cc2)nn(-c2cnn(C)c2)c1=O
Second compound 0.1 µM
  IC50: > 300 nM
Second compound 0.316 µM
  IC50: > 300 nM
Second compound 1 µM
  IC50: > 300 nM
Second compound 3.16 µM
  IC50: > 300 nM
Second compound 10 µM
  IC50: > 300 nM
Second compound 0.1 µM, first compound 0.000949 µM
  viability, T/C: 98%
Second compound 0.1 µM, first compound 0.003 µM
  viability, T/C: 101%
[1]
  viability, T/C: 96.3%
[2]
  viability, T/C: 93.8%
[3]
  viability, T/C: 83.6%
[4]
  viability, T/C: 68.8%
Second compound 0.316 µM, first compound 0.000949 µM
  viability, T/C: 93%
Second compound 0.316 µM, first compound 0.003 µM
  viability, T/C: 109%
[5]
  viability, T/C: 95.5%
[6]
  viability, T/C: 86%
[7]
  viability, T/C: 83.4%
[8]
  viability, T/C: 72.1%
Second compound 1 µM, first compound 0.000949 µM
  viability, T/C: 96.5%
Second compound 1 µM, first compound 0.003 µM
  viability, T/C: 99%
[9]
  viability, T/C: 98.2%
[10]
  viability, T/C: 92.5%
[11]
  viability, T/C: 87.4%
[12]
  viability, T/C: 70.3%
Second compound 3.16 µM, first compound 0.000949 µM
  viability, T/C: 87.5%
Second compound 3.16 µM, first compound 0.003 µM
  viability, T/C: 90.9%
[13]
  viability, T/C: 105%
[14]
  viability, T/C: 76.6%
[15]
  viability, T/C: 69.7%
[16]
  viability, T/C: 70.6%
Second compound 10 µM, first compound 0.000949 µM
  viability, T/C: 74.9%
Second compound 10 µM, first compound 0.003 µM
  viability, T/C: 78.3%
[17]
  viability, T/C: 78.3%
[18]
  viability, T/C: 71.9%
[19]
  viability, T/C: 65%
[20]
  viability, T/C: 59.3%

## O=C(C=Cn1cnc(-c2cc(C(F)(F)F)cc(C(F)(F)F)c2)n1)NNc1cnccn1 + CC(CO)NC(=O)c1cc(-c2ccc(Cl)cc2)nn(-c2cnn(C)c2)c1=O
Second compound 0.1 µM
  IC50: 58.5 nM
Second compound 0.316 µM
  IC50: 51.6 nM
Second compound 1 µM
  IC50: 45.8 nM
Second compound 3.16 µM
  IC50: 32.7 nM
Second compound 10 µM
  IC50: 9.75 nM
[1]
  viability, T/C: 72.7%
[2]
  viability, T/C: 69%
[3]
  viability, T/C: 36.2%
[4]
  viability, T/C: 23.2%
Second compound 0.1 µM, first compound 0.949 µM
  viability, T/C: 22.3%
Second compound 0.1 µM, first compound 3 µM
  viability, T/C: 17.8%
[5]
  viability, T/C: 74.8%
[6]
  viability, T/C: 62.7%
[7]
  viability, T/C: 35.4%
[8]
  viability, T/C: 23.1%
Second compound 0.316 µM, first compound 0.949 µM
  viability, T/C: 17.9%
Second compound 0.316 µM, first compound 3 µM
  viability, T/C: 14.7%
[9]
  viability, T/C: 67.2%
[10]
  viability, T/C: 58.8%
[11]
  viability, T/C: 35.3%
[12]
  viability, T/C: 23.1%
Second compound 1 µM, first compound 0.949 µM
  viability, T/C: 18.5%
Second compound 1 µM, first compound 3 µM
  viability, T/C: 16.7%
[13]
  viability, T/C: 61.3%
[14]
  viability, T/C: 51.4%
[15]
  viability, T/C: 32.1%
[16]
  viability, T/C: 20.7%
Second compound 3.16 µM, first compound 0.949 µM
  viability, T/C: 15.7%
Second compound 3.16 µM, first compound 3 µM
  viability, T/C: 18.4%
[17]
  viability, T/C: 49.9%
[18]
  viability, T/C: 46.5%
[19]
  viability, T/C: 31.2%
[20]
  viability, T/C: 20.9%
Second compound 10 µM, first compound 0.949 µM
  viability, T/C: 18.5%
Second compound 10 µM, first compound 3 µM
  viability, T/C: 17.4%

From PubChem BioAssay AID1919007 (Molecular Pharmacology Branch, DTP, NCI, 2023)
